Tests used:
[1] = tested on: barnyardgrass; experiment: Test B pre-/postemergence herbicide test; type: in vivo, Echinochloa crus-galli; conditions: for Barnyardgrass plant response rating: scale 0 (no effect) to 100 (complete control)
How it was run: (§1)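 Flooded paddy rice and barnyardgrass were treated at the 2-leaf stage; upland plantings received compound either on sown seed or on 1- to 4-leaf seedlings. All were kept 13–15 days in a greenhouse and scored visually, 0–100, relative to untreated plants.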

[2] = tested on: Surinam grass; experiment: Test B pre-/postemergence herbicide test; type: in vivo, Urochloa decumbens; conditions: for Surinam Grass plant response rating: scale 0 (no effect) to 100 (complete control)
How it was run: (§2)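 Pre: seeds sown, then sprayed. Post: 1–4-leaf plants (2–18 cm) sprayed at the same time. Paddy: flooded, treated at 2-leaf stage. Formulation: non-phytotoxic solvent with surfactant. Greenhouse 13–15 days; visual 0–100 score relative to controls.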

[3] = tested on: cocklebur; experiment: Test B pre-/postemergence herbicide test; type: in vivo, Xanthium strumarium; conditions: for Cocklebur plant response rating: scale 0 (no effect) to 100 (complete control)
How it was run: as §1

[4] = tested on: corn; experiment: Test B pre-/postemergence herbicide test; type: in vivo, Zea mays; conditions: for Corn plant response rating: scale 0 (no effect) to 100 (complete control)
How it was run: as §2

[5] = tested on: large crabgrass; experiment: Test B pre-/postemergence herbicide test; type: in vivo, Digitaria sanguinalis; conditions: for Crabgrass, Large plant response rating: scale 0 (no effect) to 100 (complete control)
How it was run: as §2

[6] = tested on: giant foxtail; experiment: Test B pre-/postemergence herbicide test; type: in vivo, Setaria faberi; conditions: for Foxtail, Giant plant response rating: scale 0 (no effect) to 100 (complete control)
How it was run: as §2

[7] = tested on: morningglory; experiment: Test B pre-/postemergence herbicide test; type: in vivo, Ipomoea coccinea; conditions: for Morningglory plant response rating: scale 0 (no effect) to 100 (complete control)
How it was run: as §1

[8] = tested on: pigweed; experiment: Test B pre-/postemergence herbicide test; type: in vivo, Amaranthus retroflexus; conditions: for Pigweed plant response rating: scale 0 (no effect) to 100 (complete control)
How it was run: as §2

[9] = tested on: velvetleaf; experiment: Test B pre-/postemergence herbicide test; type: in vivo, Abutilon theophrasti; conditions: for Velvetleaf plant response rating: scale 0 (no effect) to 100 (complete control)
How it was run: as §2

[10] = tested on: blackgrass; experiment: Test B postemergence herbicide test; type: in vivo, Alopecurus myosuroides; conditions: scale 0 (no effect) to 100 (complete control)
How it was run: (§3)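 After treating 2-leaf paddy plants or 2–18 cm postemergence plants (1 to 4 leaves) with formulated chemical, researchers kept them in a greenhouse for 13–15 days. Effects were judged visually versus controls: 0 indicates none, 100 total control.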

[11] = tested on: wheat; experiment: Test B postemergence herbicide test; type: in vivo, Triticum aestivum; set-up: key to Wheat plant response rating: 0 = no effect, 100 = complete control
How it was run: (§4)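 Treated at 2-leaf (paddy) or 1–4-leaf, 2–18 cm (postemergence); greenhouse 13–15 d; visual score vs control, 0 none to 100 complete control; dash = not tested.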

[12] = tested on: wild oat; experiment: Test B postemergence herbicide test; type: in vivo, Avena fatua; conditions: scale 0 (no effect) to 100 (complete control)
How it was run: as §4

[13] = tested on: rice; experiment: Test B flooded paddy test; type: in vivo, Oryza sativa; conditions: 1000 g ai/ha, scale 0 to 100 (0 no effect, 100 complete control)
How it was run: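 Plants grow to 1- to 4-leaf stage (2–18 cm) for postemergence spraying, or to 2-leaf stage for the paddy test. Formulated compound is applied. Greenhouse holding lasts 13–15 days. Response is scored visually relative to controls, 0 no effect to 100 complete control; a dash means no result.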

[14] = tested on: small flower umbrella sedge; experiment: Test B flooded paddy test; type: in vivo, Cyperus difformis; conditions: 1000 g ai/ha, scale 0 to 100 (0 no effect, 100 complete control)
How it was run: as §3

[15] = tested on: ducksalad; experiment: Test B flooded paddy test; type: in vivo, Heteranthera limosa; conditions: 1000 g ai/ha, scale 0 to 100 (0 no effect, 100 complete control)
How it was run: as §3

[16] = tested on: barnyardgrass; experiment: Test B flooded paddy test; type: in vivo, Echinochloa crus-galli; conditions: 1000 g ai/ha, scale 0 to 100 (0 no effect, 100 complete control)
How it was run: as §3

[17] = 125 g ai/ha, 0 is no effect, 100 is complete control, preemergence
[18] = 125 g ai/ha, visual rating, postemergence

In the case of `CCc1nn(C(C)(C)C)nc1C(=S)Nc1cccc(C(=S)N(C)C)c1` [Compound 396], the “Plant response rating (0 to 100 scale), Barnyardgrass” value [1, 17] is reported as 90, the “Barnyardgrass plant response rating” value [1, 18] is reported as 10 and the “Barnyardgrass plant response rating” value ([1]; Postemergence, 500 g ai/ha) is reported as 20. For the same molecule, the “Plant response rating (0 to 100 scale), Surinam Grass” value [2, 17] was 90, the “Surinam Grass plant response rating” value [2, 18] was 20 and the “Surinam Grass plant response rating” value ([2]; Postemergence, 500 g ai/ha) was 30. For the same molecule, the “Plant response rating (0 to 100 scale), Cocklebur” value [3, 17] was 40, the “Cocklebur plant response rating” value [3, 18] was 20 and the “Cocklebur plant response rating” value ([3]; Postemergence, 500 g ai/ha) was 60. For the same molecule, the “Plant response rating (0 to 100 scale), Corn” value [4, 17] was 80, the “Corn plant response rating” value [4, 18] was 10 and the “Corn plant response rating” value ([4]; Postemergence, 500 g ai/ha) was 10. For the same molecule, the “Plant response rating (0 to 100 scale), Crabgrass, Large” value [5, 17] was 100, the “Crabgrass, Large plant response rating” value [5, 18] was 20 and the “Crabgrass, Large plant response rating” value ([5]; Postemergence, 500 g ai/ha) was 20. The “Plant response rating (0 to 100 scale), Foxtail, Giant” value [6, 17] was 100, the “Foxtail, Giant plant response rating” value [6, 18] was 20 and the “Foxtail, Giant plant response rating” value ([6]; Postemergence, 500 g ai/ha) was 30. The “Plant response rating (0 to 100 scale), Morningglory” value [7, 17] was 60, the “Morningglory plant response rating” value [7, 18] was 20 and the “Morningglory plant response rating” value ([7]; Postemergence, 500 g ai/ha) was 60. The “Plant response rating (0 to 100 scale), Pigweed” value [8, 17] was 90, the “Pigweed plant response rating” value [8, 18] was 40 and the “Pigweed plant response rating” value ([8]; Postemergence, 500 g ai/ha) was 70. For the same molecule, the “Plant response rating (0 to 100 scale), Velvetleaf” value [9, 17] was 80, the “Velvetleaf plant response rating” value [9, 18] was 20 and the “Velvetleaf plant response rating” value ([9]; Postemergence, 500 g ai/ha) was 50. For the same molecule, the “Blackgrass plant response rating” value [10, 18] was 10, the “Blackgrass plant response rating” value ([10]; Postemergence, 500 g ai/ha) was 30 and the “Wheat plant response rating” value ([11]; 125 g ai/ha, visual rating, scale 0 (no effect) to 100 (complete control), postemergence) was 10. For the same molecule, the “Wheat plant response rating” value ([11]; 500 g ai/ha, scale 0 to 100, 0 no effect, 100 complete control, preemergence) was 100, the “Wheat plant response rating” value ([11]; Postemergence, 500 g ai/ha, scale 0 (no effect) to 100 (complete control)) was 20 and the “Oat, Wild plant response rating” value [12, 18] was 0. For the same molecule, the “Oat, Wild plant response rating” value ([12]; Postemergence, 500 g ai/ha) was 30, the “Rice plant response rating” value [13] was 70 and the “Sedge, Umbrella plant response rating” value [14] was 80. The “Ducksalad plant response rating” value [15] was 70 and the “Barnyardgrass plant response rating” value [16] was 90.
